Values joined by “and” are separate entries in the source; they are usually repeats but may differ in a detail not shown here. Identical values can stand only once. Inconclusive results and toxic doses are left out. How the source made its calls: active means survival T/C of 150% or more; inactive means T/C below 125% in these data.
Tested on: P388 leukemia ip, CD2F1 mice, survival T/C
Assay: NCI In Vivo Anticancer Drug Screen. Data for tumor model P388 Leukemia (intraperitoneal) in CD2F1 (CDF1) mice
Settings: endpoint: median survival time, higher = longer survival
Procedure, shortened: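 Mice carrying the transplanted tumor received test compound or vehicle. Survival was recorded in each group, and the value is the treated-group measurement divided by that of the vehicle-treated control group.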

[1] = dose: 25.0 mg/kg/injection, schedule: Q04DX002 (ip), vehicle: saline with Tween-80
[2] = dose: 100.0 mg/kg/injection, schedule: Q04DX002 (ip), vehicle: saline with Tween-80
[3] = dose: 200.0 mg/kg/injection, schedule: Q04DX002 (ip), vehicle: saline with Tween-80
[4] = dose: 100.0 mg/kg/injection, schedule: Q04DX003 (ip), vehicle: saline with Tween-80
[5] = dose: 200.0 mg/kg/injection, schedule: Q04DX003 (ip), vehicle: saline with Tween-80
[6] = dose: 400.0 mg/kg/injection, schedule: Q04DX003 (ip), vehicle: saline with Tween-80
[7] = dose: 50.0 mg/kg/injection, schedule: Q01DX005 (ip), vehicle: Klucel (hydroxypropylcellulose) (HPC)
[8] = dose: 100.0 mg/kg/injection, schedule: Q01DX005 (ip), vehicle: Klucel (hydroxypropylcellulose) (HPC)
[9] = dose: 50.0 mg/kg/injection, schedule: Q01DX009 (ip), vehicle: saline
[10] = dose: 100.0 mg/kg/injection, schedule: Q01DX009 (ip), vehicle: saline
[11] = dose: 200.0 mg/kg/injection, schedule: Q01DX009 (ip), vehicle: saline
[12] = dose: 60.0 mg/kg/injection, schedule: Q01DX005 (ip), vehicle: saline with Tween-80
[13] = dose: 120.0 mg/kg/injection, schedule: Q01DX005 (ip), vehicle: saline with Tween-80
[14] = dose: 240.0 mg/kg/injection, schedule: Q01DX005 (ip), vehicle: saline with Tween-80
[15] = dose: 25.0 mg/kg/injection, schedule: Q01DX005 (ip), vehicle: Klucel (hydroxypropylcellulose) (HPC)
[16] = dose: 100.0 mg/kg/injection, schedule: Q01DX009 (ip), vehicle: saline with Tween-80
[17] = dose: 200.0 mg/kg/injection, schedule: Q01DX009 (ip), vehicle: saline with Tween-80

Measured: T/C

O=C(O)c1cc(F)cc(C(=O)O)c1
inactive: dose: 50.0 mg/kg/injection, schedule: Q04DX003 (ip), vehicle: suspension in saline 109 % of control | dose: 100.0 mg/kg/injection, schedule: Q04DX003 (ip), vehicle: suspension in saline 104 % of control | dose: 200.0 mg/kg/injection, schedule: Q04DX003 (ip), vehicle: suspension in saline 110 % of control

CCCCCCC(=O)/C=C\c1ccccc1
inactive: [1] 95 % of control | dose: 50.0 mg/kg/injection, schedule: Q04DX002 (ip), vehicle: saline with Tween-80 100 % of control | [2] 97 % of control | [3] 106 % of control

CCSC/C(=N\Nc1ccc([N+](=O)[O-])cc1[N+](=O)[O-])c1ccccc1
inactive: [4] 100 % of control | [5] 95 % of control | [6] 90 % of control

Cc1cnc(C)n2cnnc12
inactive: dose: 100.0 mg/kg/injection, schedule: Q04DX003 (ip), vehicle: saline 93 % of control | dose: 200.0 mg/kg/injection, schedule: Q04DX003 (ip), vehicle: saline 95 % of control | dose: 400.0 mg/kg/injection, schedule: Q04DX003 (ip), vehicle: saline 98 % of control

O=C1OC(=O)N2CSCC12 (stereo unspecified)
inactive: [7] 101 % of control | [8] 96 % of control | dose: 200.0 mg/kg/injection, schedule: Q01DX005 (ip), vehicle: Klucel (hydroxypropylcellulose) (HPC) 92 % of control

Nc1ccc2nc(N)sc2c1
inactive: [9] 100 % of control | [10] 93 % of control | [11] 101 % of control

Cc1ccccc1OCC1COCN(C(C)(C)C)CO1 (stereo unspecified)
inactive: [12] 100 % of control | [13] 107 % of control | [14] 102 % of control

Cc1ccc2c(c1)C(=O)n1cccc1C(O)N2 (stereo unspecified)
inactive: dose: 0.1 mg/kg/injection, schedule: Q01DX005 (ip), vehicle: water 100 % of control | dose: 0.2 mg/kg/injection, schedule: Q01DX005 (ip), vehicle: water 99 % of control | dose: 0.4 mg/kg/injection, schedule: Q01DX005 (ip), vehicle: water 99 % of control | dose: 0.8 mg/kg/injection, schedule: Q01DX005 (ip), vehicle: water 98 % of control | dose: 1.6 mg/kg/injection, schedule: Q01DX005 (ip), vehicle: water 89 % of control | dose: 5.0 mg/kg/injection, schedule: Q01DX005 (ip), vehicle: distilled water + Tween-80 98 % of control | dose: 10.0 mg/kg/injection, schedule: Q01DX005 (ip), vehicle: distilled water + Tween-80 95 % of control | dose: 20.0 mg/kg/injection, schedule: Q01DX005 (ip), vehicle: distilled water + Tween-80 92 % of control | dose: 40.0 mg/kg/injection, schedule: Q01DX005 (ip), vehicle: distilled water + Tween-80 98 % of control | dose: 80.0 mg/kg/injection, schedule: Q01DX005 (ip), vehicle: distilled water + Tween-80 92 % of control

CCCCOP(O)(=S)OCCCC.[Er]
inactive: [2] 96 % of control | [3] 101 % of control | dose: 400.0 mg/kg/injection, schedule: Q04DX002 (ip), vehicle: saline with Tween-80 95 % of control

CCOc1cc2c(cc1C/C=C/c1ccc(OC)cc1)OCO2
inactive: [12] 103 % of control | [13] 103 % of control | [14] 113 % of control

COC(=O)C(c1c(O)cc(C)oc1=O)C(C(=O)OC)c1c(O)cc(C)oc1=O (stereo unspecified)
inactive: dose: 100.0 mg/kg/injection, schedule: Q04DX003 (ip), vehicle: Klucel (hydroxypropylcellulose) (HPC) 96 % of control | dose: 200.0 mg/kg/injection, schedule: Q04DX003 (ip), vehicle: Klucel (hydroxypropylcellulose) (HPC) 95 % of control | dose: 400.0 mg/kg/injection, schedule: Q04DX003 (ip), vehicle: Klucel (hydroxypropylcellulose) (HPC) 96 % of control

CC(C)(C)OC(=O)N/N=C\c1ccnc2ccccc12
inactive: [15] 93 % of control | [7] 96 % of control | [8] 93 % of control

C/C1=N/N=C(N)\N=C(\C)CC1
inactive: [9] 90 % of control | [10] 102 % of control | [11] 101 % of control

Cc1cc[n+](C2=C(Nc3cccc(C(F)(F)F)c3)C(=O)c3ccccc3C2=O)cc1
inactive: dose: 3.75 mg/kg/injection, schedule: Q01DX005 (ip), vehicle: saline with Tween-80 105 % of control | dose: 7.5 mg/kg/injection, schedule: Q01DX005 (ip), vehicle: saline with Tween-80 119 % of control | dose: 15.0 mg/kg/injection, schedule: Q01DX005 (ip), vehicle: saline with Tween-80 105 % of control

CN(C)c1nc(=O)c2c(ccc3ccccc32)o1
inactive: [12] 97 % of control | [13] 104 % of control | [14] 101 % of control

OCC1OC(O)C(Cl)(Cl)C(O)C1O (stereo unspecified)
inactive: [9] 107 % of control | [10] 117 % of control | [11] 112 % of control

NC(=S)Nc1ccc(Cc2ccc(NC(N)=S)cc2)cc1
inactive: dose: 25.0 mg/kg/injection, schedule: Q04DX003 (ip), vehicle: saline with Tween-80 101 % of control | dose: 50.0 mg/kg/injection, schedule: Q04DX003 (ip), vehicle: saline with Tween-80 101 % of control | [4] 100 % of control | [5] 99 % of control

COc1cc(C[C@H](CO)[C@@H](CO)Cc2ccc3c(c2)OCO3)cc(OC)c1OC
inactive: dose: 6.25 mg/kg/injection, schedule: Q04DX002 (ip), vehicle: saline with Tween-80 95 % of control | dose: 12.5 mg/kg/injection, schedule: Q04DX002 (ip), vehicle: saline with Tween-80 102 % of control | [1] 106 % of control

C#CC(C)C(C(C)=O)C(=O)c1ccccc1.[C-]#[O+].[C-]#[O+].[C-]#[O+].[C-]#[O+].[C-]#[O+].[C-]#[O+].[Co].[Co] (stereo unspecified)
inactive: dose: 12.5 mg/kg/injection, schedule: Q01DX005 (ip), vehicle: Klucel (hydroxypropylcellulose) (HPC) 108 % of control | [15] 101 % of control | [7] 104 % of control and 95 % of control

Cc1oc(C)c2c1C(=O)N(C)C2=O
inactive: [12] 100 % of control | [13] 100 % of control | [14] 103 % of control

CCCCCCCCCCCCCCCCC[CH2][Sn](=[O])[OH]
inactive: [9] 111 % of control | [10] 113 % of control | [11] 114 % of control

COC(=O)[C@@H]1CCCN1C(=O)C(=O)N1CCC[C@H]1C(=O)OC
inactive: dose: 100.0 mg/kg/injection, schedule: Q01DX001 (ip), vehicle: saline with Tween-80 108 % of control | dose: 200.0 mg/kg/injection, schedule: Q01DX001 (ip), vehicle: saline with Tween-80 103 % of control | dose: 400.0 mg/kg/injection, schedule: Q01DX001 (ip), vehicle: saline with Tween-80 103 % of control

COC(=O)C(=O)C(C(=O)c1cccc2ccccc12)c1nc2n(c1O)C(=N)N=N2 (stereo unspecified)
inactive: [12] 109 % of control | [13] 104 % of control | [14] 100 % of control

CO[C@H]1/C=C/O[C@@]2(C)Oc3c(C)c(O)c4c(O)c(c(/C=N/N5CCNCC5)c(O)c4c3C2=O)NC(=O)/C(C)=C\C=C\[C@H](C)[C@H](O)[C@@H](C)[C@@H](O)[C@@H](C)C(OC(C)=O)[C@@H]1C (stereo partly specified)
inactive: [16] 95 % of control | [4] 91 % of control | [17] 104 % of control | [5] 91 % of control | [6] 100 % of control

O=C(/C=C/c1cccc([N+](=O)[O-])c1)c1ccccc1
inactive: dose: 50.0 mg/kg/injection, schedule: Q01DX009 (ip), vehicle: saline with Tween-80 99 % of control | [16] 92 % of control | [17] 92 % of control | dose: 400.0 mg/kg/injection, schedule: Q01DX009 (ip), vehicle: saline with Tween-80 100 % of control

O=C(O)C(O)C(F)(F)C(F)(F)C(F)(F)C(F)(F)C(O)C(=O)O (stereo unspecified)
inactive: dose: 60.0 mg/kg/injection, schedule: Q01DX005 (ip), vehicle: saline 93 % of control | dose: 120.0 mg/kg/injection, schedule: Q01DX005 (ip), vehicle: saline 93 % of control | dose: 240.0 mg/kg/injection, schedule: Q01DX005 (ip), vehicle: saline 86 % of control

CCOCC(=O)OCC
inactive: [10] 105 % of control | [11] 101 % of control | dose: 400.0 mg/kg/injection, schedule: Q01DX009 (ip), vehicle: saline 102 % of control

C/C(=C\c1ccc([N+](=O)[O-])cc1)C(=O)NC(C)C
inactive: dose: 50.0 mg/kg/injection, schedule: Q01DX005 (ip), vehicle: other 102 % of control | dose: 100.0 mg/kg/injection, schedule: Q01DX005 (ip), vehicle: other 93 % of control | dose: 200.0 mg/kg/injection, schedule: Q01DX005 (ip), vehicle: other 105 % of control
